The values that follow come from patent EP4818179A1, “PREPARATION FOR AND USE OF PYRIMIDO-THIOPYRANDIONE INHIBITOR FOR KRAS G12C MUTANT PROTEIN” (Ya Therapeutics Inc, priority 2024, dated 2025).

Molecules are shown by their SMILES.

The experiment relates to H358 (KRAS G12C mutant) cells. The experiment in a line: Tumor cell proliferation inhibition experiment (Cell Titer-Glo luminescent cell viability assay). The note with it: Homo sapiens, NCI-H358, 72 h, read-out: NCI-H538 IC50(nm). (Cellular ATP, detected with luciferase, serves as a proxy for viable cell number.)
Protocol: H358 (KRAS G12C mutant) cells were digested, centrifuged, and resuspended. Cell density was determined using a Scepter automated cell counter. The cells were diluted to a solution containing 44,000 cells per milliliter. The adjusted cell solution was added to 90 µL per well in a 96-well culture plate. The 96-well plate was placed in a 37°C, 5% CO2 incubator. After culturing the cells for 24 hours, different concentrations of the test compound were added. The cells were then cultured with the compound for 72 hours in the presence of 10% fetal bovine serum. The ATP content was measured using the Cell Titer-Glo luminescent cell viability assay kit (see manufacturer's instructions for details) to assess cell growth inhibition. In short, 30 µL of Cell Titer-Glo reagent was added to each well, and the plate was shaken for 10 minutes to induce cell lysis. The fluorescence signal was detected and recorded using a Fluoroskan Ascent FL (Thermo). The maximum signal value was obtained from cells treated with dimethyl sulfoxide for 72 hours. Minimum signal value was obtained from a single culture medium (zero cell count). Inhibition rate % = (maximum signal value - minimum signal value) / (maximum signal value - minimum signal value × 100%). Data was processed using GraphPadprism 5 software. IC50 values were calculated by fitting an S-shaped dose-response curve.
Consider `C=CC(=O)N1CCN(c2nc(OC[C@@]34CCCN3C[C@H](F)C4)nc3c2CS(=O)(=O)[C@H](c2c(F)c(N)cc(C)c2C(F)(F)F)C3)[C@@H](C)C1` [Compound 1A, 1-((3S)-4-((7S)-7-(3-amino-2-fluoro-5-methyl-6-(trifluoromethyl)phenyl)-2-(((2R,7A S)-2-fluorotetrahydro-1H-pyrrolazin-7a(5H)-yl)methoxy)-6,6-dioxo-7,8-dihydro-5H-thiaran[4,3-d]pyrimidin-4-yl)-3-methylpyrazin-1-yl)prop-2-en-1-one], for which the IC50 (commonly the concentration needed to halve the response being measured) is under 10 nM.
Consider `C=CC(=O)N1CCN(c2nc(OC[C@@]34CCCN3C[C@H](F)C4)nc3c2CS(=O)(=O)[C@@H](c2nc(N)cc(C)c2C(F)(F)F)C3)C[C@@H]1CC#N` [Compound 7B, 2-((2S)-4-((7R)-7-(6-amino-4-methyl-3-(trifluoromethyl)pyridin-2-yl)-2-(((2R,7AS)-2-fluorotetrahydro-1H-pyrrolazin-7a(5H)-yl)methoxy)-6,6-dioxo-7,8-dihydro-5H-thiaran[4,3-d]pyrimidin-4-yl)-1-(acryloyl)pyrazin-2-yl)acetonitrile], for which the IC50 was under 10 nM.
Take `C=CC(=O)N1CCN(c2nc(OC[C@@]34CCCN3C[C@H](F)C4)nc3c2CS(=O)(=O)C(c2c(F)c(N)cc(C)c2C(F)(F)F)C3)C[C@@H]1CC#N` (stereo partly drawn) [Compound 3, 2-((2S)-1-Acryloyl-4-(7-(3-amino-2-fluoro-5-methyl-6-(trifluoromethyl)phenyl)-2-(((2R,7AS)-2-fluorotetrahydro-1H-pyrrolazin-7a(5H)-yl)methoxy)-6,6-dioxo-7,8-dihydro-5H-thiaran[4,3-d]pyrimidin-4-yl)pyrazin-2-yl)acetonitrile]: the IC50 is under 10 nM.
For `C=CC(=O)N1CCN(c2nc(OC[C@@]34CCCN3C[C@H](F)C4)nc3c2CS(=O)(=O)C(c2nc(N)cc(C)c2C(F)(F)F)C3)[C@@H](C)C1` (stereo partly drawn) [Compound 5, 1-((3S)-4-(7-(6-amino-4-methyl-3-(trifluoromethyl)pyridin-2-yl)-2-(((2R,7AS)-2-fluorotetrahydro-1H-pyrrolazin-7a(5H)-yl)methoxy)-6,6-dioxo-7,8-dihydro-5H-thiaran[4,3-d]pyrimidin-4-yl)-3-methylpyrazin-1-yl)prop-2-en-1-one] the value was under 10 nM; for `C=CC(=O)N1CCN(c2nc(OC[C@@]34CCCN3C[C@H](F)C4)nc3c2CS(=O)(=O)C(c2nc(N)cc(C)c2C(F)(F)F)C3)C[C@@H]1CC#N` (stereo partly drawn) [Compound 7, 2-((2S)-4-(7-(6-amino-4-methyl-3-(trifluoromethyl)pyridin-2-yl)-2-(((2R,7AS)-2-fluorotetrahydro-1H-pyrrolazin-7a(5H)-yl)methoxy)-6,6-dioxo-7,8-dihydro-5H-thiaran[4,3-d]pyrimidin-4-yl)-1-(acryloyl)pyrazin-2-yl)acetonitrile], under 10 nM; for `C=CC(=O)N1CCN(c2nc(OC[C@@]34CCCN3C[C@H](F)C4)nc3c2CS(=O)(=O)C(c2c(F)c(N)cc(C)c2C(F)(F)F)C3)[C@@H](C)C1` (stereo partly drawn) [Compound 1, 1-((3S)-4-(7-(3-amino-2-fluoro-5-methyl-6-(trifluoromethyl)phenyl)-2-(((2R,7AS)-2-fluorotetrahydro-1H-pyrrolazin-7a(5H)-yl)methoxy)-6,6-dioxo-7,8-dihydro-5H-thiaran[4,3-d]pyrimidin-4-yl)-3-methylpyrazin-1-yl)prop-2-en-1-one], under 10 nM.
Next, `C=CC(=O)N1CCN(c2nc(OC[C@@]34CCCN3C[C@H](F)C4)nc3c2CS(=O)(=O)[C@H](c2nc(N)cc(C)c2C(F)(F)F)C3)C[C@@H]1CC#N` [Compound 7A, 2-((2S)-4-((7S)-7-(6-amino-4-methyl-3-(trifluoromethyl)pyridin-2-yl)-2-(((2R,7AS)-2-fluorotetrahydro-1H-pyrrolazin-7a(5H)-yl)methoxy)-6,6-dioxo-7,8-dihydro-5H-thiaran[4,3-d]pyrimidin-4-yl)-1-(acryloyl)pyrazin-2-yl)acetonitrile]: under 10 nM.
Regarding `C=C(F)C(=O)N1CCN(c2nc(OC[C@@]34CCCN3C[C@H](F)C4)nc3c2CS(=O)(=O)[C@H](c2nc(N)cc(C)c2C(F)(F)F)C3)C[C@@H]1CC#N` [Compound 8A, 2-((2S)-4-((7S)-7-(6-amino-4-methyl-3-(trifluoromethyl)pyridin-2-yl)-2-(((2R,7AS)-2-fluorotetrahydro-1H-pyrrolazin-7a(5H)-yl)methoxy)-6,6-dioxo-7,8-dihydro-5H-thiaran[4,3-d]pyrimidin-4-yl)-1-(2-fluoroacryloyl)pyrazin-2-yl)acetonitrile], the IC50 was under 10 nM.
Next, `C=C(F)C(=O)N1CCN(c2nc(OC[C@@]34CCCN3C[C@H](F)C4)nc3c2CS(=O)(=O)[C@@H](c2nc(N)cc(C)c2C(F)(F)F)C3)C[C@@H]1CC#N` [Compound 8B, 2-((2S)-4-((7R)-7-(6-amino-4-methyl-3-(trifluoromethyl)pyridin-2-yl)-2-(((2R,7AS)-2-fluorotetrahydro-1H-pyrrolazin-7a(5H)-yl)methoxy)-6,6-dioxo-7,8-dihydro-5H-thiaran[4,3-d]pyrimidin-4-yl)-1-(2-fluoroacryloyl)pyrazin-2-yl)acetonitrile]: under 10 nM.
Next, `C=C(F)C(=O)N1CCN(c2nc(OC[C@@]34CCCN3C[C@H](F)C4)nc3c2CS(=O)(=O)C(c2c(F)c(N)cc(C)c2C(F)(F)F)C3)C[C@@H]1CC#N` (stereo partly drawn) [Compound 4, 2-((2S)-4-(7-(3-amino-2-fluoro-5-methyl-6-(trifluoromethyl)phenyl)-2-(((2R,7AS)-2-fluorotetrahydro-1H-pyrrolazin-7a(5H)-yl)methoxy)-6,6-dioxo-7,8-dihydro-5H-thiaran[4,3-d]pyrimidin-4-yl)-1-(2-fluoroacryloyl)pyrazin-2-yl)acetonitrile]: under 10 nM.
In the case of `C=C(F)C(=O)N1CCN(c2nc(OC[C@@]34CCCN3C[C@H](F)C4)nc3c2CS(=O)(=O)C(c2c(F)c(N)cc(C)c2C(F)(F)F)C3)[C@@H](C)C1` (stereo partly drawn) [Compound 2, 1-((3S)-4-(7-(3-amino-2-fluoro-5-methyl-6-(trifluoromethyl)phenyl)-2-(((2R,7AS)-2-fluorotetrahydro-1H-pyrrolazin-7a(5H)-yl)methoxy)-6,6-dioxo-7,8-dihydro-5H-thiaran[4,3-d]pyrimidin-4-yl)-3-methylpyrazin-1-yl)-2-fluoroprop-2-en-1-one], the half-maximal inhibitory concentration (IC50) is under 10 nM.
